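96-well plates; 48 h exposure; 5 concentrations. Endpoints by linear interpolation between flanking doses. Not reached: highest tested concentration assigned. TGI is the concentration that stops growth completely.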
Legend:
Experiment in all cases: growth of human tumour cells (NCI), 48 h
RPMI-8226 leukemia = tested on: RPMI-8226 leukemia
SF-268 CNS = tested on: SF-268 CNS
COLO 205 colon = tested on: COLO 205 colon
EKVX NSCLC = tested on: EKVX NSCLC
SNB-19 CNS = tested on: SNB-19 CNS
HT29 colon = tested on: HT29 colon
SK-OV-3 ovarian = tested on: SK-OV-3 ovarian
UACC-257 melanoma = tested on: UACC-257 melanoma
MCF7 breast = tested on: MCF7 breast
CCRF-CEM leukemia = tested on: CCRF-CEM leukemia
MALME-3M melanoma = tested on: MALME-3M melanoma
HS 578T breast = tested on: HS 578T breast
OVCAR-5 ovarian = tested on: OVCAR-5 ovarian
MOLT-4 leukemia = tested on: MOLT-4 leukemia
SR leukemia = tested on: SR leukemia
K-562 leukemia = tested on: K-562 leukemia
U251 CNS = tested on: U251 CNS
SK-MEL-5 melanoma = tested on: SK-MEL-5 melanoma
PC-3 prostate = tested on: PC-3 prostate
ACHN renal = tested on: ACHN renal
IGROV1 ovarian = tested on: IGROV1 ovarian
MDA-MB-231 breast = tested on: MDA-MB-231 breast
MDA-N = tested on: MDA-N
HL-60(TB) leukemia = tested on: HL-60(TB) leukemia
786-0 renal = tested on: 786-0 renal
KM12 colon = tested on: KM12 colon
DU-145 prostate = tested on: DU-145 prostate
SK-MEL-2 melanoma = tested on: SK-MEL-2 melanoma
SK-MEL-28 melanoma = tested on: SK-MEL-28 melanoma
NCI-H226 lung = tested on: NCI-H226 lung
NCI-H460 lung = tested on: NCI-H460 lung
HOP-62 NSCLC = tested on: HOP-62 NSCLC
NCI-H522 lung = tested on: NCI-H522 lung
OVCAR-8 ovarian = tested on: OVCAR-8 ovarian
T-47D breast = tested on: T-47D breast
HCT-116 colon = tested on: HCT-116 colon
NCI/ADR-RES ovarian = tested on: NCI/ADR-RES ovarian
SW-620 colon = tested on: SW-620 colon
HCT-15 colon = tested on: HCT-15 colon
UO-31 renal = tested on: UO-31 renal
SF-295 CNS = tested on: SF-295 CNS
CAKI-1 renal = tested on: CAKI-1 renal
M14 melanoma = tested on: M14 melanoma
UACC-62 melanoma = tested on: UACC-62 melanoma
SNB-75 CNS = tested on: SNB-75 CNS
OVCAR-4 ovarian = tested on: OVCAR-4 ovarian
HCC-2998 colon = tested on: HCC-2998 colon
OVCAR-3 ovarian = tested on: OVCAR-3 ovarian
SF-539 CNS = tested on: SF-539 CNS
RXF 393 renal = tested on: RXF 393 renal
MDA-MB-435 = tested on: MDA-MB-435
A549 NSCLC = tested on: A549 NSCLC
A498 renal = tested on: A498 renal
NCI-H23 lung = tested on: NCI-H23 lung
SN12C renal = tested on: SN12C renal

## COc1ccc(C(OCC2OC(n3ccc(NC(=O)c4ccccc4)nc3=O)C(O)C2O)(c2ccccc2)c2ccccc2)cc1 (stereo not given)
RPMI-8226 leukemia
  TGI: 4.64 µM
SF-268 CNS
  TGI: 19.8 µM
COLO 205 colon
  TGI: 3.7 µM
EKVX NSCLC
  TGI: 6.1 µM
SNB-19 CNS
  TGI: 9 µM
HT29 colon
  TGI: 3.04 µM
SK-OV-3 ovarian
  TGI: 20.6 µM
UACC-257 melanoma
  TGI: 21.1 µM
MCF7 breast
  TGI: 4.26 µM
CCRF-CEM leukemia
  TGI: 4.39 µM
MALME-3M melanoma
  TGI: 3.73 µM
HS 578T breast
  TGI: 4.86 µM
OVCAR-5 ovarian
  TGI: 3.79 µM
MOLT-4 leukemia
  TGI: 4.17 µM
SR leukemia
  TGI: 4.96 µM
K-562 leukemia
  TGI: 5.58 µM
U251 CNS
  TGI: 3.48 µM
SK-MEL-5 melanoma
  TGI: 3.32 µM
PC-3 prostate
  TGI: 8.28 µM
ACHN renal
  TGI: 7.59 µM
IGROV1 ovarian
  TGI: 3.86 µM
MDA-MB-231 breast
  TGI: 4.05 µM
MDA-N
  TGI: 3.79 µM
HL-60(TB) leukemia
  TGI: 4.36 µM
786-0 renal
  TGI: 3.69 µM
KM12 colon
  TGI: 38.5 µM
DU-145 prostate
  TGI: 10.3 µM
SK-MEL-2 melanoma
  TGI: 6.68 µM
SK-MEL-28 melanoma
  TGI: 7.95 µM
NCI-H226 lung
  TGI: 7.87 µM
NCI-H460 lung
  TGI: 4.02 µM
HOP-62 NSCLC
  TGI: 4 µM
NCI-H522 lung
  TGI: 5.61 µM
OVCAR-8 ovarian
  TGI: 3.22 µM
T-47D breast
  TGI: 9.42 µM
HCT-116 colon
  TGI: 3.23 µM
NCI/ADR-RES ovarian
  TGI: 4.89 µM
SW-620 colon
  TGI: 5.8 µM
HCT-15 colon
  TGI: 3.87 µM
UO-31 renal
  TGI: 11.4 µM
SF-295 CNS
  TGI: 3.49 µM
CAKI-1 renal
  TGI: 5.79 µM
M14 melanoma
  TGI: 3.62 µM
UACC-62 melanoma
  TGI: 21 µM
SNB-75 CNS
  TGI: 22 µM
OVCAR-4 ovarian
  TGI: 6.04 µM
HCC-2998 colon
  TGI: 12.6 µM
OVCAR-3 ovarian
  TGI: 3.15 µM
SF-539 CNS
  TGI: 3.94 µM
RXF 393 renal
  TGI: 10.8 µM
MDA-MB-435
  TGI: 5.73 µM
A549 NSCLC
  TGI: 14.9 µM
A498 renal
  TGI: 2.97 µM
NCI-H23 lung
  TGI: 3 µM
SN12C renal
  TGI: 3.2 µM

— PubChem BioAssay (NCI)
